Experimental data from patent US9562017B2, “Hydrogen sulfate salt” (Array BioPharma Inc., priority 2005, dated 2017).
Counter-ions that a name gives are not always drawn.

Key:
BCS classification = assay type: physicochemical; conditions: free base
From the text: BCS Class 4 compounds normally have low bioavailability due to both low dissolution rate and permeability, and the limitation of permeability on absorption means that such salts would not usually be expected exert a substantial impact on absorption (See for example: Dressman et al. (2001) Pharm Tech. July: 68).

[1] = Dissolution rate of the crystalline salt; assay type: physicochemical; conditions: crystalline salt compared to the free base and other salts
[2] = Plasma levels of Compound 1 in fasted dogs after oral dispersion doses, salt versus free base; assay type: in vivo, beagle dogs; conditions: crystalline salt compared to the free base and other salts
Experimental: Single doses of 150 mg were administered orally to fasted beagle dogs weighing 12-17 kg and about 2 to 6 years old on each of three dosing days. Each dosing day was 1 week apart.
All formulations were prepared extemporaneously just prior to dosing by adding 7.5 mL of the appropriate dispersing solution via a 10 mL disposable syringe, to vials containing 150 mg free base equivalents of the appropriate drug form, capping and vortex mixing for 30 seconds to form a dispersion.
The dispersion was removed from the vial using the disposable syringe and dosed to the animal via a gavage tube positioned into the stomach. The vials were rinsed twice by adding, for each of the two rinses, a separate 15 mL aliquot of water (total rinse volume=30 mL) via a 20 mL disposable syringe, capping, vortex mixing for 5 seconds, removing the wash solution from the vial using the disposable syringe and dosing to the animal via the gavage tube.
Dogs were fed about 400 g of Special Diet Services Laboratory Diet A each day and allowed water ad libitum. Whole blood (2 mL) in lithium heparin tubes were taken from the jugular vein immediately prior to dosing and at 0.5, 1, 2, 3, 4, 5, 6, 8, 12, 18, 24, 36 and 48 hours. The blood was centrifuged at 3000 rpm for 15 minutes and plasma was removed into plain blood tubes and the plasma stored at −20° C. until analysis. […]

Row | Compound | BCS Class (BCS classification) | dissolution rate [1] | bioavailability [2]
1 | Cn1cnc2c(F)c(Nc3ccc(Br)cc3Cl)c(C(=O)NOCCO)cc21 [Compound 1, 6-(4-bromo-2-chloro-phenylamino)-7-fluoro-3-methyl-3H-benzoimidazole-5-carboxylic acid (2-hydroxy-ethoxy)-amide] | BCS Class 4 |  | 
2 | Cn1cnc2c(F)c(Nc3ccc(Br)cc3Cl)c(C(=O)NOCCO)cc21 [hydrogen sulfate salt, 6-(4-bromo-2-chloro-phenylamino)-7-fluoro-3-methyl-3H-benzoimidazole-5-carboxylic acid (2-hydroxy-ethoxy)-amide hydrogen sulfate] |  | particularly high | particularly high
